Measured values taken from patent US20120122840A1, “COMPOUNDS AND THERAPEUTIC USES THEREOF” (Myrexis, Inc., priority 2009, published 2012).
Blank lines part the entries; values can stand above or below the compound they belong to. Peptide text beside a SMILES is read from it. * marks the point of attachment. Cbz = O=C(OCc1ccccc1)*; CH2F = FC*

Assays:
[1] = test system: p53 on serine 15 and H2AX on serine 139; experiment: Effect of ATM, ATM/ATR and DNA-PK inhibitors on Compound A-induced phosphorylation in HCT-116 cells; format: cell-based; settings: 5 μM inhibitor with 1 μM Compound A
Description: Phosphorylation of either p53 on serine 15 or H2AX on serine 139 is often mediated by the DNA damage checkpoint proteins, ATM or ATR. […] As a positive control, cells were treated with the UV mimetic 4-NQO (5 μM). Cell lysates were analyzed by Western blot with anti-p53, anti-p53-pS15, anti-H2AX-pS139 and anti-GAPDH antibodies (see FIGS. 6A-6C). […] Phosphorylation of p53 on serine 15 and H2AX on serine 139 appears mediated by ATR kinase in response to TTK inhibition.

JAK1 [2] = molecular target: T1, JAK1 (Homo sapiens, UniProt P23458); experiment: In vitro binding assays
T1 construct: Cellular proteins were prepared by mild sonication in lysis buffer; endogenous in cells
T1 sequence (P23458 whole entry, species assumed): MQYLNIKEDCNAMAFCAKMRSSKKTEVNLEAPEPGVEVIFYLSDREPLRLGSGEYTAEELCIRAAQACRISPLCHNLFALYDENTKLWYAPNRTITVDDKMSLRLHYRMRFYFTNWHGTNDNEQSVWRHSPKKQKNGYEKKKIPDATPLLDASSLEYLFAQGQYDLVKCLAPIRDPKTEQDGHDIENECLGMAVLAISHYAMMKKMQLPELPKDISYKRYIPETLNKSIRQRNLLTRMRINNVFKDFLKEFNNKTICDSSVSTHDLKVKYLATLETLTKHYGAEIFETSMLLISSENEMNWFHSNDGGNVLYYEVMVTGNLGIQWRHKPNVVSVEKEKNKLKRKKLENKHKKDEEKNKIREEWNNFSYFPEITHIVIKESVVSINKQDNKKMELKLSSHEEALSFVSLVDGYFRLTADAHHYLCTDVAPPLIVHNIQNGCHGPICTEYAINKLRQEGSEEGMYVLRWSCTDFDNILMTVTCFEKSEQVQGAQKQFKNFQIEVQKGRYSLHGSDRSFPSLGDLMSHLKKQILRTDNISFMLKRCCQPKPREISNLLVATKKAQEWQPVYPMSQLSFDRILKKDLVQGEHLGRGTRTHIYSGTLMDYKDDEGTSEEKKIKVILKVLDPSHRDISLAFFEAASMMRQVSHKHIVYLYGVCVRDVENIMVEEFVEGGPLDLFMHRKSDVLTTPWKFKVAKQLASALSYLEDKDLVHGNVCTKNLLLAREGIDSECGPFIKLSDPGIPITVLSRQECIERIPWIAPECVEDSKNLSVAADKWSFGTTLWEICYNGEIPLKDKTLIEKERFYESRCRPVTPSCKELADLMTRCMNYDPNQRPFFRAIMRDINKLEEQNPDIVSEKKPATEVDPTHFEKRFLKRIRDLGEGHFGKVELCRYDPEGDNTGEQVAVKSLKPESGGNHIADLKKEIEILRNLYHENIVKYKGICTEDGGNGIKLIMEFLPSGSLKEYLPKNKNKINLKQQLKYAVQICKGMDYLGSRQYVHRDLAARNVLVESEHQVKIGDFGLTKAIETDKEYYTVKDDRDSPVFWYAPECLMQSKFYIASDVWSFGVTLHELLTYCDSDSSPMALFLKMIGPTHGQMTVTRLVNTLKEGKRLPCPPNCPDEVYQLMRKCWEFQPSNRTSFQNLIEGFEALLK

FER [3] = molecular target: T2, FER (Homo sapiens, UniProt P16591); experiment: In vitro binding assays
T2 sequence (P16591 whole entry, species assumed): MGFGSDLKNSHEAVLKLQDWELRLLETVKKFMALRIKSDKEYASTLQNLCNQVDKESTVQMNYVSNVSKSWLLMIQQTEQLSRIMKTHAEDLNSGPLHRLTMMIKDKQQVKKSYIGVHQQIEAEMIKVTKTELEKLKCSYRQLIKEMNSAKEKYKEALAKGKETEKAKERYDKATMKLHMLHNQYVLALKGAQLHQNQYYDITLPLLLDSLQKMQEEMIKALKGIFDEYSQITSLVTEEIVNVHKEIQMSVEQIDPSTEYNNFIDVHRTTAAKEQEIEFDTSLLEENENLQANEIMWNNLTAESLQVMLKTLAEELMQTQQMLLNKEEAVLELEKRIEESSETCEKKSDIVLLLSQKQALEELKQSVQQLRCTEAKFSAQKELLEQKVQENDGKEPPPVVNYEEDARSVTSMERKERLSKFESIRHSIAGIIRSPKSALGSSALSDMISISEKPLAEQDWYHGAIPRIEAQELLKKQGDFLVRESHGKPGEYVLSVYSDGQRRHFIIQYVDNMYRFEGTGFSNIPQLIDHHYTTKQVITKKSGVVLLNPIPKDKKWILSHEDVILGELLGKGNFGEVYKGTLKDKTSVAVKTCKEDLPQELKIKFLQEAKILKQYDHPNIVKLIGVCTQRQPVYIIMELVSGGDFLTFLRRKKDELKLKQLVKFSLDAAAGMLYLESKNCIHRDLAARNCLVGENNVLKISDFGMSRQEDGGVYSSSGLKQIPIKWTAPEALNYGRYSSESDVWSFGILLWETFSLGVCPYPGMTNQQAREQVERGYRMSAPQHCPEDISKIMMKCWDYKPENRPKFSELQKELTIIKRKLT

TTK = molecular target: T3, TTK (Homo sapiens, UniProt P33981); experiment: TTK inhibition assay ([γ-33P]ATP transfer to phosphorylated MBP); format: biochemical; parameters: A. Recombinant TTK enzyme; settings: read-out: inhibition of the protein kinase activity of TTK, IC50
T3 sequence (P33981 1-857): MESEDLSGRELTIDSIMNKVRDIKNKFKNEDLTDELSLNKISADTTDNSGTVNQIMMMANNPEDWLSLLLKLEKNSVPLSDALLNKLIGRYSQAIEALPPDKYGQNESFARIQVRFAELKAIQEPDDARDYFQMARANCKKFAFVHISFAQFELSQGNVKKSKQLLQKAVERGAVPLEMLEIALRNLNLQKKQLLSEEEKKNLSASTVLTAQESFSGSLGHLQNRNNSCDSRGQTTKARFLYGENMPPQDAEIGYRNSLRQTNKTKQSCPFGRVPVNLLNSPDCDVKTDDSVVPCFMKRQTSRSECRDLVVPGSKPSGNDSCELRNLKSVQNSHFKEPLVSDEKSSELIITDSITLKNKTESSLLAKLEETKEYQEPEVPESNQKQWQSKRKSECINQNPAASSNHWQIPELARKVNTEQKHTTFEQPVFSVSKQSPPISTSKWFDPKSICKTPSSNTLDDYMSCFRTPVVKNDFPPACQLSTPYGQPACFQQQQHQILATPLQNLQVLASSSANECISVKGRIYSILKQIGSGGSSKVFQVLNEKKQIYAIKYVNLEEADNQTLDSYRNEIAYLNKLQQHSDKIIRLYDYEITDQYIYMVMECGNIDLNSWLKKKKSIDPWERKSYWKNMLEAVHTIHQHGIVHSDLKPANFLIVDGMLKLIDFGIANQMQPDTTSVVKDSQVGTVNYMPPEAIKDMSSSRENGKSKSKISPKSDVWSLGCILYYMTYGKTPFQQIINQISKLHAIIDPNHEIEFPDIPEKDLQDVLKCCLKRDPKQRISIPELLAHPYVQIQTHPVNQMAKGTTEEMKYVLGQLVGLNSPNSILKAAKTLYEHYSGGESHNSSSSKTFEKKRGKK
Description: The compounds of the invention were also tested in the following assay to determine TTK-inhibitory activity. This assay measures transfer of radioactive phosphate from ATP to a protein substrate in the presence or absence of a test compound.
MATERIALS: • A. Recombinant TTK enzyme; • B. Phosphorylated myelin basic protein (MBP); • C. [γ-^33P]ATP: 1 mCi/100 μL; • D. Positive Control: a proprietary compound known to have […] in this assay.
Final concentrations of reaction mixture components (50 μl total volume): 50 mM Tris-HCl, pH 7.5; 0.01% Triton X-100; 10 mM MgCl2; 25 ng TTK (˜4 nM); 5 μM Phosphorylated MBP; 40 μM ATP (1 μCi/well, adjusted ATP specific activity according to strength of radiolabeled ATP).
Mixes were assembled in the wells of a 96-well polypropylene plate as follows: 1 μL 50× compound to be tested; 39 μL 1.282× Reaction Mix; 10 μL 5×ATP Mix.
The following reaction/assay steps were then performed: • 1. Mix thoroughly and incubate at room temperature for 45 minutes; • 2. Add 70 μL/well, except in background wells, of 3% phosphoric acid to terminate reaction, and transfer 100 μL to P81 filter plate; • 3. Wash with 1% phosphoric acid, then dry the P81 filter plate completely; • 4. Add 100 μL/well MicroSint-20 (PerkinElmer #6013621) and seal; • 5.

JNK [4] = molecular target: T4, JNK (Homo sapiens, UniProt P45983); experiment: In vitro binding assays
T4 sequence (P45983 whole entry): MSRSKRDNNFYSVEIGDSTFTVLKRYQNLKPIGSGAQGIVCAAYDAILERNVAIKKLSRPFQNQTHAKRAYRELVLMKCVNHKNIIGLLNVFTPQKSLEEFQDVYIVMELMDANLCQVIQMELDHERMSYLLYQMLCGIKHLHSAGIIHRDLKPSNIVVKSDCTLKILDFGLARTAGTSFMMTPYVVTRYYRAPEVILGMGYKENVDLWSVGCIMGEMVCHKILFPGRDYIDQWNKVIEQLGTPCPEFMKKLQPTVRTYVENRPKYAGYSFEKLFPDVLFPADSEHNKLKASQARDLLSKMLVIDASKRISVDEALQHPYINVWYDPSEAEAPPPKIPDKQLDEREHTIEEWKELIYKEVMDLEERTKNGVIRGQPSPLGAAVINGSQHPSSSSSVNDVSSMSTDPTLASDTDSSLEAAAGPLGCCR

JAK1 [5] = molecular target: T1, JAK1; experiment: Direct target affinity purification (DTAP) from cell lysates; format: binding; settings: compound coupled to Sepharose beads
From the text: (§1) Direct target affinity purification (DTAP) was used to investigate (1) the selectivity of compounds of the invention for TTK, relative to other kinases, and (2) the importance of a specific methyl substituent in providing that selectivity.
(§2) In preparation for DTAP studies, the two compounds depicted above were synthesized with an alkyl-amine linker to allow covalent coupling to epoxy-activated Sepharose 6B beads (GE Healthcare, Piscataway, N.J.). Sepharose beads were swollen and washed with water for 30 min followed by equilibration in coupling buffer (50% dimethylformamide, 50 mM Na2CO3). Beads were pelleted by centrifugation (15 sec at 2000×g) and the supernatant removed by aspiration. An equal volume of coupling buffer containing the linkered test compound was used to resuspend the beads. Compound concentrations in the coupling reaction ranged from 0.1 mM to 12.5 mM. The coupling reactions were incubated at 34° C. for 18 hrs on a rotator mixer. Ethanolamine was added to 1 M for the final 1 hr to quench the coupling reaction. Beads were washed extensively with binding buffer (1 M NaCl, 50 mM Hepes [pH 7.4], 1% Triton X-100, 1 mM EDTA and 1 mM dithiothreitol) to remove residual coupling reagents, and were then stored at 4° C.
(§3) Cellular proteins were prepared by mild sonication in lysis buffer (150 mM NaCl, 50 mM Hepes [pH 7.4], 1% Triton X-100, 1 mM EDTA and 2 mM dithiothrietol containing 1× Halt™ protease and phosphatase inhibitor cocktail [Thermo Fisher Scientific, Rockford, Ill.]). Lysates were centrifuged (20,000×g for 20 min) to remove debris, diluted to a protein concentration of ˜5 mg/ml, divided into aliquots, and stored at −80° C.
(§4) For DTAP reactions, cell lysates (˜0.5 ml per binding reaction) were thawed and the NaCl concentration adjusted to 1 M. Competitor compounds dissolved in DMSO (or a DMSO control) were then added to the lysate and incubated on ice for 5 min. The lysates were centrifuged at 20,000×g for 10 min and the cleared supernatant was transferred to a tube containing 50 μl of coupled beads. The binding reactions were incubated on a rotator mixer at 4° C. for 2 hrs, after which the beads were pelleted by centrifugation and the supernatant removed by aspiration. The beads were washed three times with 20 volumes of binding buffer, 2× with 20 volumes wash buffer (150 mM NaCl, 50 mM Hepes [pH 7.4], 1% Tween 20, 1 mM EDTA, 2 mM dithiothrietol) and finally twice with 10 volumes of 150 mM NaCl, 50 mM Hepes [pH 7.4].
(§5) During the final wash, an aliquot containing 10 μl of beads was transferred to a separate tube and resuspended with 15 μl of 2× SDS/PAGE loading buffer (Invitrogen Corporation, Carlsbad, Calif.) for 5 min at 90° C. The eluted proteins were resolved by electrophoresis on a NuPage 4-12% Bis-Tris Gel (Invitrogen Corporation, Carlsbad, Calif.) and visualized by staining with Ruby Red (Invitrogen Corporation, Carlsbad, Calif.). The remaining beads (40 μl) were processed for analysis by mass spectrometry.

Aurora A [6] = molecular target: T5, Aurora A (Homo sapiens, UniProt O14965); experiment: as above; format: binding; settings: compound coupled to Sepharose beads
T5 sequence (O14965 1-403): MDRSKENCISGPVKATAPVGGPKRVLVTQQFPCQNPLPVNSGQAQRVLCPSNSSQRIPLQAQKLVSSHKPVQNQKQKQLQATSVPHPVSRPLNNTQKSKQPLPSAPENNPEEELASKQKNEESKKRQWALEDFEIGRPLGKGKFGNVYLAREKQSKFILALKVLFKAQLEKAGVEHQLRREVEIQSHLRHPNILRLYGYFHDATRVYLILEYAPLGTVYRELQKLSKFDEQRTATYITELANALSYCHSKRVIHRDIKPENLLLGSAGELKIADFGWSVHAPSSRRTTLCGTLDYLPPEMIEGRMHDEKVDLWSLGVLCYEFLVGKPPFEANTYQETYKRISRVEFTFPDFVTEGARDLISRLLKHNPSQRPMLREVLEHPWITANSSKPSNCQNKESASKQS
From the text: as §1, §2, §3, §4, §5

JNK [7] = molecular target: T4, JNK; experiment: as above; format: binding; settings: compound coupled to Sepharose beads
From the text: as §1, §2, §3, §4, §5

FER [8] = molecular target: T2, FER; experiment: as above; format: binding; settings: compound coupled to Sepharose beads
From the text: as §1, §2, §3, §4, §5

Aurora A [9] = molecular target: T5, Aurora A; experiment: In vitro binding assays
HeLa cells = experiment: Cell cycle progression after double thymidine block (propidium iodide, flow cytometry); format: cell-based; settings: VX-680 at 500 nM
Description: HeLa cells were synchronized in the G1 phase of the cell cycle using a double thymidine block. The cells were released from the block by removing the media and replacing it with media containing DMSO, 500 nM VX-680 (Aurora inhibitor), or a TTK inhibitor. At the indicated time points, cells were fixed with methanol, permeabilized and stained with propidium iodide. DNA content was analyzed using a Guava EasyCyte flow cytometer.
This is due to improper spindle formation and chromosome segregation followed by failed cytokinesis. Previously, it has been shown that inhibition of TTK using siRNA results in chromosome missegregation and mitotic defects. Using TTK inhibitors of the present invention, defects in chromosome segregation were observed. Therefore, the effect of the TTK inhibitors of the present invention were analyzed for their effect on cell cycle progression and/or DNA content.

HCT-116 cells = experiment: Effect of caspase inhibition on Compound A responses in HCT-116 cells; format: cell-based
Description: Caspase 3/7 activity was determined with a Caspase-Glo 3/7 assay (see FIG. 7A). Cell lysates were analyzed by Western blot with antibodies specific for H2AX-pS139, p53-pS15, p53 or GAPDH (see FIG. 7B).

Structure (SMILES): O=C(NC(NC(=S)Nc1ccc(F)c([N+](=O)[O-])c1)C(Cl)(Cl)Cl)C(c1ccccc1)c1ccccc1 (centres unmarked) [CGK733]
- effect on p53 (and H2AX) phosphorylation in response to Compound A [1]: blocked p53 and H2AX phosphorylation

Structure (SMILES): O=c1cc(-c2cccc3c2Sc2ccccc2S3)oc(N2CCOCC2)c1 [KU-55933]
- effect on p53 (and H2AX) phosphorylation in response to Compound A [1]: had no effect

- IC50 (JAK1 [2]): > 5 µM
- IC50 (FER [3]): 380 nM
- IC50 (TTK): 3 nM
- IC50 (JNK [4]): 120 nM
- binding of JAK1 from cell lysates to bead-coupled compound (JAK1 [5]): reduced affinity
- binding of Aurora A from cell lysates to bead-coupled compound (Aurora A [6]): failed to bind
- binding of JNK from cell lysates to bead-coupled compound (JNK [7]): reduced affinity
- binding of FER from cell lysates to bead-coupled compound (FER [8]): reduced affinity
- IC50 (Aurora A [9]): > 5 µM
Structure (SMILES): Cc1cc(OCCCN)ccc1Nc1nc(NC2CCCCC2)c2nc[nH]c2n1 [N2-(4-(3-Aminopropoxy)-2-methylphenyl)-N6-cyclohexyl-9H-purine-2,6-diamine]

Structure (SMILES): Cc1cc(Nc2cc(N3CCN(C)CC3)nc(Sc3ccc(NC(=O)C4CC4)cc3)n2)n[nH]1 [VX-680]
- DNA content / cell cycle progression after release from G1 block (HeLa cells): causes cells to become tetraploid

Structure (SMILES): COC(=O)C[C@H](NC(=O)[C@H](C)NC(=O)[C@@H](NC(=O)OCc1ccccc1)C(C)C)C(=O)CF [Z-VAD-FMK] (Cbz-Val-Ala-Asp(OMe)-CH2F)
- effect on TTK inhibitor-induced H2AX phosphorylation (HCT-116 cells; 100 μM Z-VAD-FMK 1 hour before 1 μM Compound A, 48 hours): prevents TTK inhibitor-induced H2AX phosphorylation
- effect on TTK inhibitor-induced p53 phosphorylation and on cell viability (HCT-116 cells; 100 μM Z-VAD-FMK pre-treatment, viability after 72 hours (Cell Titer-Glo)): has no effect on either p53 phosphorylation or cell viability
